Structures are written as SMILES.

A short description of the series: gradient 5% acetonitrile 3 min, to 50% in 2 min, to 85% in 15 min, held 3 min, 100 µL/min. As to conditions: column: Zorbax Extend-C18 2.1 x 50 mm; eluents: water / acetonitrile, 0.1% formic acid. The essentials: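 Using water and acetonitrile that each contained 0.1% formic acid, mixtures of ~100 pure standards were separated at 100 μL/min on a Zorbax Extend-C18 column (2.1 × 50 mm, 1.8 μm). The HPLC fed a quadrupole time-of-flight mass spectrometer working in positive and negative ionization mode, with dead and dwell volumes of 40 μL and 900 μL. Data were acquired over 3 months. Retention time was read from computationally picked adduct peaks after manual inspection of each.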
Molecule `Cc1ccc(C2C=CC(C#N)=CN2Cc2ccccc2)cc1` (stereo not given) had an RP-LC retention time of 1210 s.

Molecule `CCS(=O)(=O)c1ccc2c(c1)N(Cc1nc(-c3cccc(OC)c3)no1)C(=O)CO2` came in with an RP-LC retention time of 883 s.

Turning to `COc1ccc(-c2cc(=O)n3c4ccccc4n(CC(=O)NCc4ccco4)c3n2)cc1`, the RP-LC retention time was 855 s.

For the molecule `CCc1c(C(=O)O)nnn1-c1cc(OC)cc(OC)c1`, the RP-LC retention time came to 730 s.

`CCc1nc2c(NC(=O)c3cccs3)cccn2n1` returned an RP-LC retention time of 761 s.

As for `Cc1cccc(S(=O)(=O)N2C[C@H](c3nc(-c4cccnc4)no3)[C@@H](C)C2)c1`, the RP-LC retention time was determined as 914 s.

For the molecule `Cc1c(C(=O)N2CCN(c3ccc(Cl)cc3)CC2)sc2nc[nH]c(=O)c12`, the RP-LC retention time is 769 s.

The molecule `Cc1ccc(Nc2c(-c3ccc(Cl)cc3)nc3cc(C)ccn23)cc1` had an RP-LC retention time of 807 s.

`CC1CCN(CCNC(=O)C2CCN(S(=O)(=O)c3ccc4c(c3)sc(=O)n4C)CC2)CC1` yielded an RP-LC retention time of 622 s.

With `Cc1nc(-c2cnccn2)n(CC(=O)Nc2ccc(F)c(Cl)c2)c(=O)c1C`, the RP-LC retention time was 789 s.

On to `Cc1nn(-c2ccc(Cl)cc2)c(C)c1S(=O)(=O)N1CCC(C(=O)Nc2ccccc2F)CC1`, for which the RP-LC retention time was 1020 s.

In turn, `CCOc1ccc(CC(=O)N2C[C@@H]3C[C@H](NC(=O)c4cccnc4)[C@H]2C3)cc1` registered an RP-LC retention time of 645 s.

Take `Cc1cccc(N2CCN(CC(O)c3ccc4c(c3)OCO4)CC2)c1C` (stereo not given): the RP-LC retention time was 720 s.

`CCC(Oc1ccccc1)C(=O)Nc1nc(-c2ccc(Cl)cc2)cs1` (stereo not given): the RP-LC retention time came out at 1240 s.

Consider `CC(Oc1ccccc1)C(=O)NCCCn1cccc1` (stereo not given), for which the RP-LC retention time was determined as 783 s.

In turn, `CCCNC(=O)C1CCCN(c2ccc(SCC(=O)NCc3ccc(C)cc3)nn2)C1` (stereo not given) returned an RP-LC retention time of 656 s.

`Cc1ccc(CNC(=O)Cn2cccc2-c2nnc(-c3ccccc3)o2)cc1` registered an RP-LC retention time of 940 s.

As to `CN(CC1CCOC1)C(=O)Nc1ccccc1Br` (stereo not given), the RP-LC retention time stood at 736 s.

Turning to `COC(=O)c1cc(C)sc1NC(=O)CC1Sc2ccc(C(F)(F)F)cc2NC1=O` (stereo not given), the RP-LC retention time turned out to be 1030 s.

In turn, `Cn1c(=O)n(C)c2cc(N3CCCC3)c(NC(=O)Cc3ccccc3)cc21` registered an RP-LC retention time of 670 s.

`CC1(C)NC(=O)N(CCC(=O)N2CCCn3nc(-c4ccc(F)cc4)cc3C2)C1=O`: the RP-LC retention time came to 683 s.

As to `CCCNC(=O)c1cn(-c2cc(-c3nc(CC)no3)ccn2)cn1`, the RP-LC retention time turned out to be 780 s.

`CN(CCNC(=O)c1cc(S(=O)(=O)N2CCCCC2)ccc1Cl)Cc1ccccc1` gave an RP-LC retention time of 711 s.

Regarding `Cc1ccc(S(=O)(=O)N2CCCN(c3ccc(=O)n(-c4ccc(F)cc4)n3)CC2)cc1C`, the RP-LC retention time amounted to 937 s.

For `CCOc1ccc2nc(C(=O)NCCN3CCc4ccccc4C3)cn2n1`, the RP-LC retention time amounted to 577 s.

As for `Cc1cc(C(=O)Nc2nnc(SCC(=O)Nc3ccccc3C(F)(F)F)s2)no1`, the RP-LC retention time came out at 767 s.

For the molecule `COc1ccc2c(CCNC(=O)COc3ccc(Cl)cc3)c[nH]c2c1`, the RP-LC retention time was 879 s.

Molecule `CC1=NS(=O)(=O)N(Cc2ccccc2)C=C1C(=O)OCc1ccc(C(C)(C)C)cc1` yielded an RP-LC retention time of 1320 s.

With `COc1ccc(Cl)cc1C(=O)N1CCN=C1SCc1cccnc1`, the RP-LC retention time was found to be 578 s.

As for `O=C([C@@H]1C[C@H](F)CN1C(=O)C1(c2ccccc2)CC1)N1CCOCC1`, the RP-LC retention time was determined as 639 s.

As to `O=c1ccn(-c2cccc(F)c2)nc1-c1nc(-c2ccccc2Br)no1`, the RP-LC retention time was found to be 905 s.

Regarding `Cc1ccc(-n2nc(C)c3sc(N4CCCC(C(=O)Nc5ccccc5C)C4)nc32)cc1` (stereo not given), the RP-LC retention time stood at 1220 s.

`Cc1cc(-c2ccc(S(=O)(=O)N3CCN(c4ccccn4)CC3)s2)n[nH]1`: the RP-LC retention time is 623 s.

Molecule `COC(=O)C1=CN(c2cccc(Cl)c2)c2cc(F)ccc2S1(=O)=O` yielded an RP-LC retention time of 897 s.

`CCOc1nccnc1N1CCC(N(C)C(=O)c2ccc(C#N)cc2)C1` (stereo not given) showed an RP-LC retention time of 751 s.

`CCN1CCN(c2ccc(-c3nc(-c4cccc(C)c4)no3)cn2)CC1` came in with an RP-LC retention time of 734 s.

Molecule `Cc1sc(NC(=O)CCC2CCCCC2)nc1-c1ccc2c(c1)NC(=O)CO2` came in with an RP-LC retention time of 1060 s.

Molecule `CCCn1cc(CCNC(=O)c2ccccc2C)c2cccnc21` showed an RP-LC retention time of 748 s.

`COc1ccc(NC(=O)c2c(O)c3cccnc3n(-c3cccc(F)c3)c2=O)cc1Cl` had an RP-LC retention time of 1280 s.

Consider `CCCc1noc(-c2ccnc(-n3ncc(C(=O)N4CCCC4)c3C)c2)n1`, for which the RP-LC retention time is 896 s.

As to `CCc1nc2cc(N3CCC(C(=O)NCCN4CCCC4)CC3)cnc2nc1CC`, the RP-LC retention time is 600 s.

In turn, `COc1ccc(CC(=O)N2CCc3cc(-c4ccno4)ccc32)cc1` had an RP-LC retention time of 909 s.

The molecule `CC(C)C(=O)N1CCCCCNC(=O)[C@@H]2CCCC[C@@H]21` yielded an RP-LC retention time of 700 s.

The molecule `CCn1c(=O)c(C)nc2cc(-c3noc(-c4cc(OC)cc(OC)c4)n3)ccc21` displayed an RP-LC retention time of 894 s.

`CCN(CC)CCCNC(=O)c1cc2n(n1)CC(C)(C(=O)NCc1ccccc1)N(C)C2=O` (stereo not given): the RP-LC retention time was 581 s.

`CC(C)C(NC(=O)c1ccsc1)C(=O)Nc1nc2ccccc2[nH]1` (stereo not given) showed an RP-LC retention time of 666 s.

As for `CCOC(=O)c1[nH]c(C)c(CCC(=O)N2CCC(C(=O)NCCOC)CC2)c1C`, the RP-LC retention time stood at 628 s.

`O=[N+]([O-])c1ccc(S(=O)(=O)N2CCN(c3ccc(NCC4CCCO4)nn3)CC2)cc1` (stereo not given) registered an RP-LC retention time of 568 s.

The molecule `CC(NC(=O)C(=O)NCc1nc(-c2ccccc2)no1)c1ccccc1` (stereo not given) had an RP-LC retention time of 856 s.

In turn, `Cc1nccn1Cc1noc(-c2ccccc2Cl)n1` had an RP-LC retention time of 615 s.

Regarding `O=C(Cc1ccc(Cl)cc1)N1CCN(c2ncccc2-c2nnc(C3CC3)o2)CC1`, the RP-LC retention time came out at 872 s.

`Clc1cccc(CN2CCCN(c3ncccc3-c3nc(C4CC4)no3)CC2)c1` returned an RP-LC retention time of 723 s.

The molecule `O=C(CCC1CCN(c2cc(NC3CC3)ncn2)CC1)NCc1cc(F)ccc1F` had an RP-LC retention time of 666 s.

`Cc1occc1C(=O)Nc1nc(-c2ccc3ccccc3c2)cs1` displayed an RP-LC retention time of 1170 s.

For the molecule `COc1ccc2c(c1)C1(CCN(S(=O)(=O)c3ccc(Br)cc3)C1)C(=O)N2` (stereo not given), the RP-LC retention time was found to be 881 s.

The molecule `CCN1C(=O)c2cccc3c(NC(=O)Nc4cccc(Cl)c4)ccc1c23` returned an RP-LC retention time of 889 s.

Molecule `Cc1cc(=O)n(CC(=O)Nc2cccc(Cl)c2)c(-c2ccccc2)n1` displayed an RP-LC retention time of 1080 s.

Molecule `O=C(CN1CC=C(c2cnn(-c3ccccc3)c2)CC1)N1CCN(c2ccccn2)CC1` came in with an RP-LC retention time of 567 s.

Consider `Cc1cccc(OCC(=O)N2CCCC(c3n[nH]c(C4CC4)n3)C2)c1` (stereo not given), for which the RP-LC retention time was 687 s.

As for `CCCn1ccc2sc(C)c(C(=O)N3CCOCC3)c2c1=O`, the RP-LC retention time was determined as 646 s.

`O=C(C1=CN(c2cccc(F)c2)c2ccccc2S1(=O)=O)N1CCOCC1` gave an RP-LC retention time of 730 s.

In turn, `CCOc1cccc(-c2noc(CN3C(=O)COc4cc(C)ccc43)n2)c1` displayed an RP-LC retention time of 1130 s.

In turn, `CC(C)CNC(=O)CC1Sc2ncccc2N(CC(C)C)C1=O` (stereo not given) came in with an RP-LC retention time of 791 s.

As to `CCC(C)NC(=O)c1nn(-c2ccc(OC)cc2)c(OC)cc1=O` (stereo not given), the RP-LC retention time is 692 s.

For the molecule `Clc1cc(Br)ccc1-c1ccc(CNCC2CCNCC2)o1`, the RP-LC retention time was 605 s.

Regarding `O=C(c1ccc2ccnc(N3CCN(c4ccccc4)CC3)c2c1)N1CCN(c2ccccn2)CC1`, the RP-LC retention time turned out to be 616 s.

Molecule `O=C(CSc1ccncc1)N1CCCn2nc(-c3ccc(Cl)cc3)cc2C1` registered an RP-LC retention time of 661 s.

As for `Cc1cc(F)ccc1NC(=O)C1CCN(C(=O)C2Sc3ccccc3NC2=O)CC1` (stereo not given), the RP-LC retention time came to 738 s.

`O=C(c1ccc2ccnc(N3CCN(c4ccc(F)cc4)CC3)c2c1)N1CCN(c2ncccn2)CC1` registered an RP-LC retention time of 749 s.

As for `CCc1ccc(CNC(=O)CCCN2C(=O)CCn3nc(C)cc32)cc1`, the RP-LC retention time is 726 s.

`CCC(=O)Nc1c(C)noc1/C=C\c1ccc(S(=O)(=O)N2CCCCC2C)cc1` (stereo not given): the RP-LC retention time worked out at 915 s.

With `COC(=O)c1ccccc1NC(=O)c1nnn(-c2cc(C)ccc2Cl)c1C`, the RP-LC retention time is 1230 s.

Turning to `Cc1ccc(NC(=O)Cn2cnc3nc(N4CCC(C(=O)NC5CC5)CC4)sc3c2=O)cc1`, the RP-LC retention time was 674 s.

Turning to `CSc1ccc(CCNC(=O)c2ccc(CN3CC(=O)N4CCCCC4C3=O)cc2)cc1` (stereo not given), the RP-LC retention time amounted to 738 s.

In turn, `CCCc1cc(N2CCN(C(=O)c3ccco3)CC2)nc2nnc(CC)n12` showed an RP-LC retention time of 617 s.

For the molecule `CC(C)CCNC(=O)CCCn1c2ccccc2c2cnn(C)c(=O)c21`, the RP-LC retention time is 865 s.

Regarding `Cc1ccc2cc(CN3CCC4(CCC4O)CC3)c(=O)[nH]c2c1` (stereo not given), the RP-LC retention time was 590 s.

`Cc1cc(N2CCC(NC(=O)Nc3cccc(F)c3)C2=O)ccc1F` (stereo not given): the RP-LC retention time turned out to be 882 s.

With `COc1ccc(C(=O)Nc2c(-c3ccccc3)nc3cc(C)ccn23)c(OC)c1`, the RP-LC retention time is 680 s.

Molecule `CCN(C(=O)c1ccc(C)cc1)c1nc(-c2ccc(C)cc2)cs1` gave an RP-LC retention time of 1320 s.

The values above are taken from the METLIN SMRT retention time set (Domingo-Almenara et al. 2019).
